What follows are molecules tested against T1, ERα protein (HiBiT-tagged) in ESR1_HiBiT KI MCF7 cells (Homo sapiens, UniProt P03372) (assay: Nano Glo HiBiT Lytic Degradation Assay). Conditions: 6 hours with compound, 14-point dose response 1:3, bell-shape curve fit, half-maximal effect of first Hill model, read-out: MCF7 ESR1 HiBiT - (DC50).
T1 sequence (P03372 1-595): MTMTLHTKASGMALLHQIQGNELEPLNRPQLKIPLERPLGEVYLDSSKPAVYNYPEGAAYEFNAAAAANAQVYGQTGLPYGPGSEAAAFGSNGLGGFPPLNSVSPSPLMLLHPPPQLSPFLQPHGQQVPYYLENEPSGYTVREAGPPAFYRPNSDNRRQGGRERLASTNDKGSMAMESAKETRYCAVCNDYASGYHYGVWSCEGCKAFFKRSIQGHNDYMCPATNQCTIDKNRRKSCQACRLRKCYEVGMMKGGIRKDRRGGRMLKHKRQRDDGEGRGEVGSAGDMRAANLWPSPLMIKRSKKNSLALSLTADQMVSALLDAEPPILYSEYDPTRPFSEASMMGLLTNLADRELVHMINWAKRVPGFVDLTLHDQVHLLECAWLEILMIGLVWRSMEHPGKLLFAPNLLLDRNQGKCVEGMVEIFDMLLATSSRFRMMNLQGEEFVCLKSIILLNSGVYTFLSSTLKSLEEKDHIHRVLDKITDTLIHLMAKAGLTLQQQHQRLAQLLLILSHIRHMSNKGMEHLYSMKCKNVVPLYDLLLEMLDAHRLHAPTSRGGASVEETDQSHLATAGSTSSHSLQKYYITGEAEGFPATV
Assay type: cell-based
Procedure, shortened: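 Lytic Nano-Glo HiBiT luminescence quantified ERα remaining after a 6 h, 37° C compound exposure of MCF7 cells carrying endogenous HiBiT-tagged ESR1. Dosing used 14 threefold dilutions from a 10 mM DMSO stock (0.1% DMSO final), run in duplicate. Signals were corrected for cell-free background and expressed relative to DMSO, and DC50 came from a bell-shaped curve fit (first Hill model half-maximum).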

Row | Compound | DC50 [nM]
1 | NC(=O)C(CCC(=O)O)N1Cc2cc(N3CCN(CC4CCN(c5ccc([C@@H]6c7ccc(O)cc7CO[C@@H]6c6ccccc6)cc5)CC4)CC3)ccc2C1=O (stereo partly drawn) [Compound I-399] | ≥ 10000
2 | NC(=O)CCC(C(=O)O)N1Cc2cc(N3CCN(CC4CCN(c5ccc([C@@H]6c7ccc(O)cc7CO[C@@H]6c6ccccc6)cc5)CC4)CC3)ccc2C1=O (stereo partly drawn) [Compound I-400] | 7.75
3 | COc1cc(N2CCC(CN3CCN(c4ccc5c(c4)CN([C@H]4CCC(=O)NC4=O)C5=O)CC3)CC2)c(-c2ccccc2)cc1[C@@H]1CCC(F)(F)c2cc(O)ccc21 [Compound I-405, (S)-3-(5-(4-((1-(5-((R)-4,4-difluoro-6-hydroxy-1,2,3,4-tetrahydronaphthalen-1-yl)-4-methoxy-[1,1′-biphenyl]-2-yl)piperidin-4-yl)methyl)piperazin-1-yl)-1-oxoisoindolin-2-yl)piperidine-2,6-dione] | 1100
4 | COc1cc(N2CCC(CN3CCN(c4ccc5c(c4)CN([C@H]4CCC(=O)NC4=O)C5=O)CC3)CC2)c(-c2ccccc2)cc1[C@H]1CCC(F)(F)c2cc(O)ccc21 [Compound I-406] | 25
5 | C[C@@H]1CN(c2ccc3c(c2)CN([C@H]2CCC(=O)NC2=O)C3=O)CCN1CC1CCN(c2ccc([C@@H]3c4ccc(O)cc4CC[C@@H]3c3ccccc3)cc2)CC1 [II-2] | 1
6 | O=C1CC[C@H](N2Cc3cc(N4C[C@@H]5C[C@H]4CN5CC4CCN(c5ccc([C@@H]6c7ccc(O)cc7CC[C@@H]6c6ccccc6)cc5)CC4)ccc3C2=O)C(=O)N1 [II-7] | ≥ 10000
7 | O=C1CC[C@H](N2Cc3cc(N4C[C@@H]5C[C@H]4CN5CC4CCN(c5ccc([C@H]6c7ccc(O)cc7CC[C@H]6c6ccccc6)cc5)CC4)ccc3C2=O)C(=O)N1 [II-8] | ≥ 10000
8 | O=C1CC[C@H](N2Cc3cc(N4CCN(C5CCN(c6ccc([C@H]7c8ccc(O)cc8CC[C@H]7c7ccccc7)cc6)CC5)CC4)ccc3C2=O)C(=O)N1 [II-30] | 100
9 | O=C1CC[C@H](N2Cc3cc(N4CCN(C5CCN(c6ccc([C@@H]7c8ccc(O)cc8CC[C@@H]7c7ccccc7)cc6)CC5)CC4)ccc3C2=O)C(=O)N1 [II-31] | 0.9
10 | COc1ccc2c(c1)CC[C@H](c1ccccc1)[C@@H]2c1ccc(N2CCC(CN3CCN(c4ccc5c(c4)CN([C@H]4CCC(=O)NC4=O)C5=O)CC3)CC2)cc1 [II-59] | ≥ 10000
11 | O=C1CC[C@H](N2Cc3cc(N4CCN(CC5CCN(c6ccc([C@@H]7c8ccc(Cl)cc8CC[C@@H]7c7ccccc7)cc6)CC5)CC4)ccc3C2=O)C(=O)N1 [II-60] | ≥ 10000
12 | O=C1CC[C@H](N2Cc3cc(N4CCN(CC5CCN(c6ccc([C@@H]7c8ccc(Br)cc8CC[C@@H]7c7ccccc7)cc6)CC5)CC4)ccc3C2=O)C(=O)N1 [II-62] | ≥ 10000
13 | O=C1CC[C@H](N2Cc3cc(N4CCN(CC5CCN(c6ccc([C@@H]7c8ccc(O)c(Cl)c8CC[C@@H]7c7ccccc7)cc6Cl)CC5)CC4)ccc3C2=O)C(=O)N1 [II-64] | 16
14 | O=C1CC[C@H](N2Cc3cc(N4CCN(CC5CCN(c6ccc([C@@H]7c8ccc(O)c(Cl)c8CC[C@@H]7c7ccccc7)cc6)CC5)CC4)ccc3C2=O)C(=O)N1 [II-65] | 4
15 | Cc1cc(F)cc(C)c1[C@@H]1CCc2cc(O)ccc2[C@@H]1c1ccc(N2CCC(CN3CCN(c4ccc5c(c4)CN([C@H]4CCC(=O)NC4=O)C5=O)CC3)CC2)cc1 [II-71] | ≥ 10000
16 | Cc1cc(F)cc(C)c1[C@H]1CCc2cc(O)ccc2[C@H]1c1ccc(N2CCC(CN3CCN(c4ccc5c(c4)CN([C@H]4CCC(=O)NC4=O)C5=O)CC3)CC2)cc1 [II-72] | ≥ 10000
17 | Cc1cc(F)cc(F)c1[C@@H]1CCc2cc(O)ccc2[C@@H]1c1ccc(N2CCC(CN3CCN(c4ccc5c(c4)CN([C@H]4CCC(=O)NC4=O)C5=O)CC3)CC2)cc1 [II-73] | 361
18 | Cc1cc(F)c([C@@H]2CCc3cc(O)ccc3[C@@H]2c2ccc(N3CCC(CN4CCN(c5ccc6c(c5)CN([C@H]5CCC(=O)NC5=O)C6=O)CC4)CC3)cc2)cc1F [II-76] | ≥ 10000
19 | O=C1CC[C@H](N2Cc3cc(N4CCN(CC5CCN(c6ccc([C@H]7c8ccc(O)cc8CC[C@H]7c7ccccc7)nc6)CC5)CC4)ccc3C2=O)C(=O)N1 [II-77] | ≥ 10000
20 | O=C1CC[C@H](N2Cc3cc(N4CCN(CC5CCN(c6ccc([C@@H]7c8ccc(O)cc8CC[C@@H]7c7ccccc7)nc6)CC5)CC4)ccc3C2=O)C(=O)N1 [II-78] | 1.37
21 | O=C1CC[C@H](N2Cc3cc(N4CCN(CC5CCN(c6ccc([C@H]7c8ccc(O)cc8CC[C@H]7c7ccccc7)cn6)CC5)CC4)ccc3C2=O)C(=O)N1 [II-79] | ≥ 10000
22 | O=C1CC[C@H](N2Cc3cc(N4CCN(CC5CCN(c6ccc([C@H]7c8ccc(O)cc8CC[C@H]7c7ccccc7)cc6F)CC5)CC4)ccc3C2=O)C(=O)N1 [II-81] | ≥ 10000
23 | O=C1CC[C@H](N2Cc3cc(N4CCN(CC5CCN(c6ccc([C@@H]7c8ccc(O)cc8CC[C@@H]7c7ccccc7)cc6F)CC5)CC4)ccc3C2=O)C(=O)N1 [II-82] | 0.84
24 | O=C1CC[C@H](N2Cc3cc(N4CCN(CC5CCN(c6c(F)cc([C@H]7c8ccc(O)cc8CC[C@H]7c7ccccc7)cc6F)CC5)CC4)ccc3C2=O)C(=O)N1 [II-83] | 424
25 | O=C1CC[C@H](N2Cc3cc(N4CCN(CC5CCN(c6ccc([C@H]7c8ccc(O)cc8CC[C@H]7c7ccccc7)c(F)c6)CC5)CC4)ccc3C2=O)C(=O)N1 [II-85] | 1090
26 | O=C1CC[C@H](N2Cc3cc(N4CCN(CCC5CCN(c6ccc([C@H]7c8ccc(O)cc8CC[C@H]7c7ccccc7)cc6)CC5)CC4)ccc3C2=O)C(=O)N1 [II-98] | ≥ 10000
27 | O=C1CC[C@H](N2Cc3cc(N4CCN(CC5CCN(c6ccc([C@H]7c8ccc(O)cc8CC[C@H]7c7ccc(F)cc7)cc6)CC5)CC4)ccc3C2=O)C(=O)N1 [II-101] | ≥ 10000
28 | O=C1CC[C@H](N2Cc3cc(N4CCN(CC5CCN(c6cc(F)c([C@H]7c8ccc(O)cc8CC[C@H]7c7ccccc7)c(F)c6)CC5)CC4)ccc3C2=O)C(=O)N1 [II-103] | ≥ 10000

Second part, the molecule after the results:

Row | DC50 [nM] | Compound
29 | 0.61 | O=C1CCC(n2cc3cc(N4CCN(CC5CCN(c6ccc([C@@H]7c8ccc(O)cc8CO[C@@H]7c7ccccc7)cc6)CC5)CC4)ccc3n2)C(=O)N1 (stereo partly drawn) [Compound I-397, 3-(5-(4-((1-(4-((3S,4R)-7-hydroxy-3-phenylisochroman-4-yl)phenyl)piperidin-4-yl)methyl)piperazin-1-yl)-2H-indazol-2-yl)piperidine-2,6-dione]
30 | 0.83 | O=C1CCC(n2ncc3cc(N4CCN(CC5CCN(c6ccc([C@@H]7c8ccc(O)cc8CO[C@@H]7c7ccccc7)cc6)CC5)CC4)ccc32)C(=O)N1 (stereo partly drawn) [Compound I-398, 3-(5-(4-((1-(4-((3S,4R)-7-hydroxy-3-phenylisochroman-4-yl)phenyl)piperidin-4-yl)methyl)piperazin-1-yl)-1H-indazol-1-yl)piperidine-2,6-dione]
31 | 0.15 | O=C1CC[C@H](N2Cc3cc(N4CCN(C[C@H]5CC[C@H](c6ccc([C@@H]7c8ccc(O)cc8CC[C@@H]7c7ccccc7)cc6)CC5)CC4)ccc3C2=O)C(=O)N1 [II-52]
32 | 0.22 | O=C1CCC(N2Cc3cc(N4CCN(CC5CCC(c6ccc([C@@H]7c8ccc(O)cc8CC[C@@H]7c7ccccc7)cc6)CC5)CC4)ccc3C2=O)C(=O)N1 (stereo partly drawn) [II-53]
33 | 0.33 | O=C1CC[C@H](N2Cc3cc(N4CCN(CCCCCOc5ccc([C@@H]6c7ccc(O)cc7CC[C@@H]6c6ccccc6)cc5)CC4)ccc3C2=O)C(=O)N1 [II-66]
34 | 0.5 | O=C1CC[C@H](N2Cc3cc(N4CCN(C(=O)C5CCN(c6ccc([C@@H]7c8ccc(O)cc8CC[C@@H]7c7ccccc7)cc6)CC5)CC4)ccc3C2=O)C(=O)N1 [II-68]
35 | 0.13 | Cc1cc(F)cc(F)c1[C@H]1CCc2cc(O)ccc2[C@H]1c1ccc(N2CCC(CN3CCN(c4ccc5c(c4)CN([C@H]4CCC(=O)NC4=O)C5=O)CC3)CC2)cc1 [II-74]
36 | 0.73 | Cc1cc(F)c([C@H]2CCc3cc(O)ccc3[C@H]2c2ccc(N3CCC(CN4CCN(c5ccc6c(c5)CN([C@H]5CCC(=O)NC5=O)C6=O)CC4)CC3)cc2)cc1F [II-75]
37 | 0.68 | O=C1CC[C@H](N2Cc3cc(N4CCN(CC5CCN(c6ccc([C@@H]7c8ccc(O)cc8CC[C@@H]7c7ccccc7)cn6)CC5)CC4)ccc3C2=O)C(=O)N1 [II-80]
38 | 0.8 | O=C1CC[C@H](N2Cc3cc(N4CCN(CC5CCN(c6c(F)cc([C@@H]7c8ccc(O)cc8CC[C@@H]7c7ccccc7)cc6F)CC5)CC4)ccc3C2=O)C(=O)N1 [II-84]
39 | 0.61 | O=C1CC[C@H](N2Cc3cc(N4CCN(CC5CCN(c6ccc([C@@H]7c8ccc(O)cc8CC[C@@H]7c7ccccc7)c(F)c6)CC5)CC4)ccc3C2=O)C(=O)N1 [II-86]
40 | 0.64 | O=C1CC[C@H](N2Cc3cc(N4CCN(CC5CCN(c6ccc([C@@H]7c8ccc(O)cc8CC[C@@H]7c7ccc(F)cc7)cc6)CC5)CC4)ccc3C2=O)C(=O)N1 [II-94]
41 | 0.79 | O=C1CC[C@H](N2Cc3cc(N4CCN(CCC5CCN(c6ccc([C@@H]7c8ccc(O)cc8CC[C@@H]7c7ccccc7)cc6)CC5)CC4)ccc3C2=O)C(=O)N1 [II-97]
42 | 0.15 | O=C1CC[C@H](N2Cc3cc(N4CCN(CC5CCN(c6cc(F)c([C@@H]7c8ccc(O)cc8CC[C@@H]7c7ccccc7)c(F)c6)CC5)CC4)ccc3C2=O)C(=O)N1 [II-102]
